This passage reports inhibition and IC50 results from ChEMBL document CHEMBL1759967, “Structure-based design and biological profile of (E)-N-(4-Nitrobenzylidene)-2-naphthohydrazide, a novel small molecule inhibitor of IκB kinase-β” (Eur J Med Chem, 2011).

The target of assay [1] is Serine/threonine-protein kinase Chk2 (Homo sapiens) (UniProt O96017). In words: Inhibition of human CHK2 kinase expressed in insect Sf21 cells using phospho-CREBtide as substrate at 30 uM.
In assay [2] the target is T1, Inhibitor of nuclear factor kappa-B kinase subunit alpha (Homo sapiens) (UniProt O15111).
T1 sequence (whole entry): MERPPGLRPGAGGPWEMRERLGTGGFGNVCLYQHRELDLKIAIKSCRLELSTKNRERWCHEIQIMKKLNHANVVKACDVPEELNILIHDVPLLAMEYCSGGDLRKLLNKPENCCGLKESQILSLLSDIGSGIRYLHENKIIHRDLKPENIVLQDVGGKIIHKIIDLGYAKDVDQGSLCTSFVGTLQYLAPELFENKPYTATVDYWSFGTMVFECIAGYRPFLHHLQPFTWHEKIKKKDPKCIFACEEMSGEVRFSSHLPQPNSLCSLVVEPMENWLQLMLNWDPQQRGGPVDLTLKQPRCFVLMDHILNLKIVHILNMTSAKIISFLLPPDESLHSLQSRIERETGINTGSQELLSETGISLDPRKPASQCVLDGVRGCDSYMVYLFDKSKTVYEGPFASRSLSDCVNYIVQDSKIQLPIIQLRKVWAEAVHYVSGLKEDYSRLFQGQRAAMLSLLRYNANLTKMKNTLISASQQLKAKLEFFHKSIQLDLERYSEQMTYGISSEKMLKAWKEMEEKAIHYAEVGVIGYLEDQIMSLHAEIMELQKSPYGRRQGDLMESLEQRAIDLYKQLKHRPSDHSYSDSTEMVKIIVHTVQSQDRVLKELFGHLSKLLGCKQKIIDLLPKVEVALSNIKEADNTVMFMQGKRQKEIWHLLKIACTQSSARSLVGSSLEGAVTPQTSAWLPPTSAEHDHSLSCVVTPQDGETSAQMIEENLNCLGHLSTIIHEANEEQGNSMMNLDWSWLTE
To be noted: Sf21, 30 uM.
Description: Inhibition of human recombinant IKK-alpha expressed in insect Sf21 cells using phospho-Ulight-IkappaB-alpha as substrate at 30 uM

Assay [3] deals with T2, Inhibitor of nuclear factor kappa-B kinase subunit beta (Homo sapiens) (UniProt O14920).
T2 sequence (whole entry): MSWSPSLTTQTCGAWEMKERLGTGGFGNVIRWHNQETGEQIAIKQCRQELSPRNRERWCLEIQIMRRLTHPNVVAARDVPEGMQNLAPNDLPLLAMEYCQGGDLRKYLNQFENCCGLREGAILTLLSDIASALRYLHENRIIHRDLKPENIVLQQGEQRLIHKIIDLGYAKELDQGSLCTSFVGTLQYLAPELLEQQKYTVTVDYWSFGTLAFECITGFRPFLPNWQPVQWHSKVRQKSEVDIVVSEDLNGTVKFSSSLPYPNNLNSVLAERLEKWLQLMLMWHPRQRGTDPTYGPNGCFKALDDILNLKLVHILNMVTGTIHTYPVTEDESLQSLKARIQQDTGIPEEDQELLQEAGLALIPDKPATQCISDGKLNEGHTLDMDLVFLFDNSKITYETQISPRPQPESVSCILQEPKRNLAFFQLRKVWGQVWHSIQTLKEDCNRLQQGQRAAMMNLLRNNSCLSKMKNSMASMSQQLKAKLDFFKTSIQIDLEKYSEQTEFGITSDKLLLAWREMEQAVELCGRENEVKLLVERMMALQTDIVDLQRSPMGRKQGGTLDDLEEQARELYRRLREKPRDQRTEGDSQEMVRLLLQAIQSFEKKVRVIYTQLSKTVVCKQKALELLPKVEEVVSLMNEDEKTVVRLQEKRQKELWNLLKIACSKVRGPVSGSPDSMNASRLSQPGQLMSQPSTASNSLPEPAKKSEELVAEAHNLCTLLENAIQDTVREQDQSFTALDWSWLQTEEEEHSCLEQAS
The settings on record: Sf21, 30 uM.
Description: Inhibition of human recombinant IKK-beta expressed in insect Sf21 cells using phospho-Ulight-IkappaB-alpha as substrate at 30 uM

Assay [4] deals with Mus musculus. As to the kind of experiment: Antiinflammatory activity in Swiss mouse assessed as inhibition of arachidonic acid-induced ear edema at 10 to 100 umol/kg, ip administered 60 mins before arachidonic acid challenge measured after 1 to 6 hrs by electronic digital caliper. It counts as functional, organism-based.
Assay [5] has as its target T3, Inhibitor of nuclear factor kappa-B kinase subunit beta (Homo sapiens, UniProt O14920).
T3 sequence (O14920 whole entry): T2 sequence (whole entry)
As to the kind of experiment: Inhibition of human recombinant IKK-beta expressed in insect Sf21 cells using phospho-Ulight-IkappaB-alpha as substrate.

The species named for assay [6] is Mus musculus. The settings on record: Swiss, Ear, at 10 µmol/kg.

Calls of active or inactive are those of the source. No cut-off for these calls is given here.

Sequence of Serine/threonine-protein kinase Chk2 (Homo sapiens) (O96017 whole entry): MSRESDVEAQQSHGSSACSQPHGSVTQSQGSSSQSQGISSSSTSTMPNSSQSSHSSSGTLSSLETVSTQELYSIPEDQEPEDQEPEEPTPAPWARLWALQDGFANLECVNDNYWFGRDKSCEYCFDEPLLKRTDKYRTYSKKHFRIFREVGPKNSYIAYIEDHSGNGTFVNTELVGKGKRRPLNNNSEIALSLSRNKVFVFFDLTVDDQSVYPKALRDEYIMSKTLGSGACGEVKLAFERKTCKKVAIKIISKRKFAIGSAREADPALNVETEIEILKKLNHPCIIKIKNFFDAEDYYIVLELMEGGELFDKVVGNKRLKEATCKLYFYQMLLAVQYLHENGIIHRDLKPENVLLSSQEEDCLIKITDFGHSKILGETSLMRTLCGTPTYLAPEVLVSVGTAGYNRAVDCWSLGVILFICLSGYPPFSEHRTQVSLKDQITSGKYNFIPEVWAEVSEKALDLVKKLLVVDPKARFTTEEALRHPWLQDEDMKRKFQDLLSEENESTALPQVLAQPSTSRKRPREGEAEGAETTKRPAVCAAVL

In the case of `COC(=O)c1ccc(/C=N/NC(=O)c2ccc3ccccc3c2)cc1`, the inhibition in assay [1], in assay [2] and in assay [3] was 0% in each case.

Take `O=C(O)c1ccc(/C=N/NC(=O)c2ccc3ccccc3c2)cc1`: the inhibition in assay [1], in assay [2] and in assay [3] was 0% in each case.

For the compound `O=C(N/N=C/c1ccc([N+](=O)[O-])cc1)c1ccc2ccccc2c1`, the inhibition (in general, how much of the control response was suppressed) in the assay with Mus musculus [4] was “Dose-dependent effect”; in assay [1], 0%; in assay [2], 0%; in assay [3], 1.2%. Besides, the half-inhibitory concentration (IC50) – broadly, the concentration needed to halve the response being measured – in assay [5] turned out to be 20 µM. For the same compound, the inhibition result in the assay filed under Mus musculus [6] is “Active”.

Consider `NC(=O)c1sc(-c2ccsc2)cc1N`, for which the inhibition entry in the assay listed under Mus musculus [6] is “Active”.
